Reference: patent US12319913B2, “5-halouracil-modified microRNAs and their use in the treatment of cancer” (The Research Foundation for The State University of New York, priority 2018, dated 2025)
[5FU] = 5-fluorouracil base replacing uracil

Legend:
[1] = test system: HCT116 derived colon cancer stem cells; format: cell-based; conditions: lethal dose of 5-FU at 100 μM
Description: (§1) For transfections, 1×10^5 cells were plated in six-well plates and transfected with 100 nM of control non-specific miRNA (Thermo Fischer), a modified microRNA, or exogenous native microRNA after 24 hours using Oligofectamine (Thermo Fischer) following the manufacturer's protocols. For reagent free transfection, cells were plated in 6 well plates at (1×10^5) cells per well. Twenty-four hours later 100 pmol miRNA (Control, miR-15a, Mimic-1) were diluted in Optimem (Thermo Fischer) and added to the plate. Media was changed after 24 hours. Media was supplemented with 10% fetal bovine serum (Thermo Fischer). Briefly, cells were cultured in growth media (DMEM/F12 supplemented with B27, 10 ng/mL bFGF, and 20 ng/mL EGF (Life Technologies) in ultra-low attachment flasks) for up to 6 days. The spheroid cells were maintained by collection through gentle centrifugation, dissociation to single cells and replating.
miR-129 mimics eliminated chemotherapy resistant colon cancer stem cells. To determine the impact of certain exemplary modified microRNAs of the present disclosure (i.e., miR-129 mimics) on 5-FU resistant colon cancer stem cells, HCT116 derived colon cancer stem cells were treated with various concentrations of Mimic-1 or 5-FU.

[2] = test system: AsPC-1 pancreatic cancer cells; assay: Cell proliferation, AsPC-1; format: cell-based, human; conditions: APSC-1; 50 nM, 25 nM, 12.5 nM, 6.25 nM, and 3.125 nM
Description: as §1, with “For transfections, 1×10^5 cells were plated in six-well plates and transfected with 100 nM of control non-specific miRNA (Thermo Fischer), a modified microRNA, or exogenous native microRNA after 24 hours using Oligofectamine (Thermo Fischer) following the manufacturer's protocols.” left out
(§2) Cell proliferation assay: Twenty-four hours after transfection, cells were seeded in 96-well plates at a density of 2000 cells per well. The cell proliferation assay was performed on days 1 to 5 by incubating 10 μl WST-1 (Roche Applied Science, Mannheim, Germany) in the culture medium for 1 h and reading the absorbance at 450 and 630 nm. The cell proliferation rate was calculated by subtracting the […]. Experiments for the cell proliferation assay were performed at least three times. The O.D. was calculated by subtracting the absorbance at 630 nm from that at 450 nm. Proliferation experiments were performed three times.

[3] = test system: AGS stomach cancer cells; assay: Cell proliferation, AGS; format: cell-based, human; conditions: compared to negative controls
Description: as §1, §2

[4] = test system: acute lymphocytic leukemia cell line (REH); assay: Cell proliferation, REH; format: cell-based, human; conditions: compared to negative controls
Description: as §1, §2

[5] = test system: Panc-1 pancreatic cancer cells; assay: Cell proliferation, Panc-1; format: cell-based, human; conditions: PANC-1; 50 nM, 25 nM, 12.5 nM, 6.25 nM, and 3.125 nM
Description: as §1, with “For transfections, 1×10^5 cells were plated in six-well plates and transfected with 100 nM of control non-specific miRNA (Thermo Fischer), a modified microRNA, or exogenous native microRNA after 24 hours using Oligofectamine (Thermo Fischer) following the manufacturer's protocols.” left out
as §2

[6] = test system: acute lymphocytic leukemia cell line (REH); assay: Cell proliferation, REH; format: cell-based, human; conditions: 50 nM, 25 nM, 12.5 nM, 6.25 nM, and 3.125 nM
[7] = test system: Hs766T pancreatic cancer cells; assay: Cell proliferation, Hs766T; format: cell-based, human; conditions: compared to negative controls
Description: as §1, §2

[8] = test system: A549 lung cancer cells; assay: Cell proliferation, A549; format: cell-based, human; conditions: A549, compared to negative controls
Description: as §1, §2

[9] = test system: SKBR3 breast cancer cells; assay: Cell proliferation, SKBR3; format: cell-based, human; conditions: SKBR3, compared to negative controls
Description: as §1, §2

[10] = test system: HCT116 colon cancer cells; assay: WST-1 cell proliferation assay, HCT116; format: cell-based, human; conditions: HCT116, in words, vs controls
Description: as §1, with “1×10^5 cells were plated in six-well plates and transfected with 100 nM of control non-specific miRNA (Thermo Fischer), a modified microRNA, or exogenous native microRNA after 24 hours using Oligofectamine” left out
as §2

[11] = test system: MDA-MB-231 triple negative breast cancer cells; assay: MTT cell proliferation, MDA-MB-231, with or without oligofectamine; format: cell-based, human; conditions: for cell proliferation without delivery vehicle (no oligofectamine): MDA-MB-231, MTT assay
Description: as §1
Furthermore, to test whether or not the modified microRNAs of the present disclosure can be delivered directly to cells and taken up by the cancer cells without the use of transfer agents or vehicles (i.e., oligofectamine), MDA-MB-231 triple negative breast cancer cells were transfected with miR-NC (negative control), exogenous unmodified miR-200b or miR-489, 5-FU-miR-200b or modified miR-489 by using oligofectamine or without delivery vehicle. As shown in FIGS. 17A-17B and 20A, the effects of expression of the exemplary modified miRs tested on breast cancer cell proliferation were monitored by MTT assay for 6 days upon transfection or incubation.

Question: How did the “effect on tumor stem cell viability” value [1] turn out when `O=c1[nH]cc(F)c(=O)[nH]1` [5-FU, 5-fluoro-1H-pyrimidine-2,4-dione, reference compound] was run?
Answer: minimal effect

Question: For “AU^FCCU^FU^FGCUAU^FCU^FGGGU^FGCU^FA (AUCCUUGCUAUCUGGGUGCUA; RNA, [5FU] at 2, 5, 6, 11, 13, 17, 20, backbone not given here) [modified miR-502]”, which “cell proliferation, dose dependence” value [2] is on record?
Answer: inhibited in a dose dependent manner

Question: What about the “gastric cancer cell proliferation” value [3] of the same molecule?
Answer: inhibited

Question: What about the “leukemia cancer cell proliferation” value [4] of the same molecule?
Answer: inhibited

Question: What about the “cell proliferation, dose dependence” value [5] of the same molecule?
Answer: inhibited in a dose dependent manner

Question: What about the “leukemia cancer cell proliferation, dose dependence” value [6] of the same molecule?
Answer: inhibited in a dose dependent manner

Question: And the “pancreatic cancer cell proliferation” value [7]?
Answer: inhibited

Question: And the “lung cancer cell proliferation” value [8]?
Answer: inhibited

Question: What about the “breast cancer cell proliferation” value [9] of the same molecule?
Answer: inhibited

Question: With “CAGU^FGGUUUUACCCU^FAUGGU^FAG (CAGUGGUUUUACCCUAUGGUAG; RNA, [5FU] at 4, 15, 20, backbone not given here) [modified miR-140 [SEQ ID NO. 9], miR-140 in which certain (3) U bases are replaced by 5-fluorouracil]” as the molecule, how does the “inhibition of colon cancer cell proliferation” value [10] read?
Answer: increased ability to inhibit colorectal cancer cell proliferation

Question: Which “cell proliferation, dose dependence” value [2] does the source give for “CAGU^FGGU^FU^FU^FU^FACCCU^FAU^FGGU^F AG (CAGUGGUUUUACCCUAUGGUAG; RNA, [5FU] at 4, 7, 8, 9, 10, 15, 17, 20, backbone not given here) [modified miR-140 [SEQ ID NO. 16]]” here?
Answer: inhibited in a dose dependent manner

Question: And the “gastric cancer cell proliferation” value [3]?
Answer: inhibited

Question: What about the “leukemia cancer cell proliferation” value [4] of the same molecule?
Answer: inhibited

Question: What about the “cell proliferation, dose dependence” value [5] of the same molecule?
Answer: inhibited in a dose dependent manner

Question: What about the “leukemia cancer cell proliferation, dose dependence” value [6] of the same molecule?
Answer: inhibited in a dose dependent manner

Question: What about the “pancreatic cancer cell proliferation” value [7] of the same molecule?
Answer: inhibited

Question: What about the “lung cancer cell proliferation” value [8] of the same molecule?
Answer: inhibited

Question: What about the “breast cancer cell proliferation” value [9] of the same molecule?
Answer: inhibited

Question: Which results are given for “CU^FGACCU^FAU^FGAAU^FU^FGACAGCC (CUGACCUAUGAAUUGACAGCC; RNA, [5FU] at 2, 7, 9, 13, 14, backbone not given here) [modified miR-192]”?
Answer: cell proliferation, dose dependence [2]: inhibited in a dose dependent manner; gastric cancer cell proliferation [3]: inhibited; leukemia cancer cell proliferation [4]: inhibited; inhibition of colon cancer cell proliferation [10]: increased ability to inhibit colorectal cancer cell proliferation; cell proliferation, dose dependence [5]: inhibited in a dose dependent manner; leukemia cancer cell proliferation, dose dependence [6]: inhibited in a dose dependent manner; pancreatic cancer cell proliferation [7]: inhibited; lung cancer cell proliferation [8]: inhibited; breast cancer cell proliferation [9]: inhibited

Question: Which results are given for “UAAUACUGCCUGGUAAUGAUGA (chemistry not fully specified; listed as Homo sapiens) [native miR-200b, 21]”?
Answer: cell proliferation without delivery vehicle (no oligofectamine) [11]: had no effects on proliferation; cell proliferation in the presence of oligofectamine ([11]; MDA-MB-231, MTT assay for 6 days, vs miR-NC): reduced the rate of cell proliferation; cell proliferation without delivery vehicle (no oligofectamine) ([11]; listed as exogenous miR-200b): did not inhibit cell growth

Question: With “U^FAACACU^FGU^FCU^FGGU^FAACGAU^FGU^F (UAACACUGUCUGGUAACGAUGU; U replaced by 5-fluorouracil, chemistry not fully specified) [modified miR-200a, miR-200a in which all (7) U bases are replaced by 5-fluorouracil]” as the molecule, how does the “cell proliferation, dose dependence” value [2] read?
Answer: inhibited in a dose dependent manner

Question: And the “gastric cancer cell proliferation” value [3]?
Answer: inhibited

Question: What about the “leukemia cancer cell proliferation” value [4] of the same molecule?
Answer: inhibited

Question: What about the “cell proliferation, dose dependence” value [5] of the same molecule?
Answer: inhibited in a dose dependent manner

Question: What about the “leukemia cancer cell proliferation, dose dependence” value [6] of the same molecule?
Answer: inhibited in a dose dependent manner

Question: And the “pancreatic cancer cell proliferation” value [7]?
Answer: inhibited

Question: And the “lung cancer cell proliferation” value [8]?
Answer: inhibited

Question: What about the “breast cancer cell proliferation” value [9] of the same molecule?
Answer: inhibited

Question: How did the “cell proliferation, dose dependence” value [2] turn out when “U^FAAU^FACU^FGCCGGGU^FAAU^FGAU^FGGA [modified miR-200c]” was run?
Answer: inhibited in a dose dependent manner

Question: And the “gastric cancer cell proliferation” value [3]?
Answer: inhibited

Question: And the “leukemia cancer cell proliferation” value [4]?
Answer: inhibited

Question: And the “cell proliferation, dose dependence” value [5]?
Answer: inhibited in a dose dependent manner

Question: What about the “leukemia cancer cell proliferation, dose dependence” value [6] of the same molecule?
Answer: inhibited in a dose dependent manner

Question: And the “pancreatic cancer cell proliferation” value [7]?
Answer: inhibited

Question: What about the “lung cancer cell proliferation” value [8] of the same molecule?
Answer: inhibited

Question: And the “breast cancer cell proliferation” value [9]?
Answer: inhibited

Question: Which results are given for “U^FAU^FU^FCAGGAAGGU^FGU^FU^FACU^FU^FAA (UAUUCAGGAAGGUGUUACUUAA; RNA, [5FU] at 1, 3, 4, 13, 15, 16, 19, 20, backbone not given here) [modified miR-506, miR-506 in which all (8) U bases are replaced by 5-fluorouracil]”?
Answer: cell proliferation, dose dependence [2]: inhibited in a dose dependent manner; gastric cancer cell proliferation [3]: inhibited; leukemia cancer cell proliferation [4]: inhibited; cell proliferation, dose dependence [5]: inhibited in a dose dependent manner; leukemia cancer cell proliferation, dose dependence [6]: inhibited in a dose dependent manner; pancreatic cancer cell proliferation [7]: inhibited; lung cancer cell proliferation [8]: inhibited; breast cancer cell proliferation [9]: inhibited

Question: How did the “cell proliferation, dose dependence” value [2] turn out when “U^FGGCAGU^FGU^FCU^FU^FAGCU^FGGU^FU^FGU^F (UGGCAGUGUCUUAGCUGGUUGU; all U replaced by 5-fluorouracil, chemistry not fully specified) [modified miR-34, miR-34 in which all (9) U bases are replaced by 5-fluorouracil]” was run?
Answer: inhibited in a dose dependent manner

Question: What about the “gastric cancer cell proliferation” value [3] of the same molecule?
Answer: inhibited

Question: What about the “leukemia cancer cell proliferation” value [4] of the same molecule?
Answer: inhibited

Question: And the “cell proliferation, dose dependence” value [5]?
Answer: inhibited in a dose dependent manner

Question: And the “leukemia cancer cell proliferation, dose dependence” value [6]?
Answer: inhibited in a dose dependent manner

Question: And the “pancreatic cancer cell proliferation” value [7]?
Answer: inhibited

Question: What about the “lung cancer cell proliferation” value [8] of the same molecule?
Answer: inhibited

Question: And the “breast cancer cell proliferation” value [9]?
Answer: inhibited

Question: What does the source list for “U^FGU^FAACAGCAACU^FCCAU^FGU^FGGA (UGUAACAGCAACUCCAUGUGGA; RNA, [5FU] at 1, 3, 13, 17, 19, backbone not given here) [modified miR-194]”?
Answer: cell proliferation, dose dependence [2]: inhibited in a dose dependent manner; gastric cancer cell proliferation [3]: inhibited; leukemia cancer cell proliferation [4]: inhibited; cell proliferation, dose dependence [5]: inhibited in a dose dependent manner; leukemia cancer cell proliferation, dose dependence [6]: inhibited in a dose dependent manner; pancreatic cancer cell proliferation [7]: inhibited; lung cancer cell proliferation [8]: inhibited; breast cancer cell proliferation [9]: inhibited
